From patent publication US20220281831A1, “FUSED-GLUTARIMIDE CRBN LIGANDS AND USES THEREOF” (Kymera Therapeutics, Inc., priority 2019, published 2022)

Assays:
CRBN-DDB1 = CRBN-DDB1 (Homo sapiens, UniProt Q96SW2); assay: Fluorescence Polarization (FP) CRBN binding assay, probe TM-493 (FAM-BB-100); conditions: CRBN-DDB1, TM-493 probe, 60 min room temperature
Experimental: Fluorescence Polarization (FP) Assay
Materials: PerkinElmer EnVision 2104 Multilabel Reader, PerkinElmer FITC FP dual emission Label 2100-8060, Corning 384-well microplate #4514, V-CMR-TM-493 (FAM-BB-100), and CRBN-DDB1-180605.
Methods: Dilution buffer (50 mM HEPES-Na pH 7.5, 100 mM NaCl, 2 mM DTT, and 0.005% Tween-20) and compound DMSO dilutions were prepared. 4× compound working solutions were made with 8% DMSO (4×) and 13.8 μL/well of dilution buffer was placed in a new 96-well plate and 1.2 μL/well of above compound DMSO dilutions were added to the wells. 40 nM (4×) TM-493 in dilution buffer was prepared from a 10 μM DMSO stock and 15 μL per well of the TM-493 working solution was transferred into the compound working solution. 160 nM (2×) CRBN-DDB1 working solution was prepared with Dilution Buffer and 10 μL/well were added into a 384-well plate. 10 μL per well of the TM-493/compound mixture were transferred into the 384-well plate. The “positive control” was sample without protein and compound in 2% DMSO. After incubation at room temperature for 60 min, data was collected and read on data on an EnVision with the following setting: Excitation Light (%): 100; Measurement Height: 9.4; G-Factor: 1; Detector Gain 1: 200; Detector Gain 2: 200; Flash Number: 100. Data was processed using GraphPad Prism 7.0
The compound numbers correspond to the compound numbers in Table 1.

[1] = target: His-tagged CRBN-DDB1 complex (Homo sapiens, UniProt Q96SW2); assay: Time-Resolved Fluorescence Resonance Energy Transfer (TR-FRET / HTRF) CRBN binding assay, displacement of Cy5-labeled thalidomide; conditions: His-CRBN-DDB1, Cy5-thalidomide 8 nM, 1 hour room temperature
His-tagged CRBN-DDB1 complex, sequence (Q96SW2 whole entry): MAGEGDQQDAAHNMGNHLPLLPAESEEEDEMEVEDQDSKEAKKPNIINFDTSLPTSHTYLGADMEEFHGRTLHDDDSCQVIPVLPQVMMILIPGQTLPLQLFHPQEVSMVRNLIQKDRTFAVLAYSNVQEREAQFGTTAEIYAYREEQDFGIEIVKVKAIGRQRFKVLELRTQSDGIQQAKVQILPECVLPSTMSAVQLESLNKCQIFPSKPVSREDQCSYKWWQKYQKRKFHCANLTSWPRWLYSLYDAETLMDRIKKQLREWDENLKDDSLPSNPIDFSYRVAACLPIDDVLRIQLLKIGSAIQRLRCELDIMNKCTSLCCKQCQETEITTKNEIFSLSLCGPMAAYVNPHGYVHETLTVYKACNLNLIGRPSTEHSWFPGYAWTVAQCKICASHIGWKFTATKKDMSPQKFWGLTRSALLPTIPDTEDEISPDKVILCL
His-tagged CRBN-DDB1 complex, sequence (Q16531 whole entry partner): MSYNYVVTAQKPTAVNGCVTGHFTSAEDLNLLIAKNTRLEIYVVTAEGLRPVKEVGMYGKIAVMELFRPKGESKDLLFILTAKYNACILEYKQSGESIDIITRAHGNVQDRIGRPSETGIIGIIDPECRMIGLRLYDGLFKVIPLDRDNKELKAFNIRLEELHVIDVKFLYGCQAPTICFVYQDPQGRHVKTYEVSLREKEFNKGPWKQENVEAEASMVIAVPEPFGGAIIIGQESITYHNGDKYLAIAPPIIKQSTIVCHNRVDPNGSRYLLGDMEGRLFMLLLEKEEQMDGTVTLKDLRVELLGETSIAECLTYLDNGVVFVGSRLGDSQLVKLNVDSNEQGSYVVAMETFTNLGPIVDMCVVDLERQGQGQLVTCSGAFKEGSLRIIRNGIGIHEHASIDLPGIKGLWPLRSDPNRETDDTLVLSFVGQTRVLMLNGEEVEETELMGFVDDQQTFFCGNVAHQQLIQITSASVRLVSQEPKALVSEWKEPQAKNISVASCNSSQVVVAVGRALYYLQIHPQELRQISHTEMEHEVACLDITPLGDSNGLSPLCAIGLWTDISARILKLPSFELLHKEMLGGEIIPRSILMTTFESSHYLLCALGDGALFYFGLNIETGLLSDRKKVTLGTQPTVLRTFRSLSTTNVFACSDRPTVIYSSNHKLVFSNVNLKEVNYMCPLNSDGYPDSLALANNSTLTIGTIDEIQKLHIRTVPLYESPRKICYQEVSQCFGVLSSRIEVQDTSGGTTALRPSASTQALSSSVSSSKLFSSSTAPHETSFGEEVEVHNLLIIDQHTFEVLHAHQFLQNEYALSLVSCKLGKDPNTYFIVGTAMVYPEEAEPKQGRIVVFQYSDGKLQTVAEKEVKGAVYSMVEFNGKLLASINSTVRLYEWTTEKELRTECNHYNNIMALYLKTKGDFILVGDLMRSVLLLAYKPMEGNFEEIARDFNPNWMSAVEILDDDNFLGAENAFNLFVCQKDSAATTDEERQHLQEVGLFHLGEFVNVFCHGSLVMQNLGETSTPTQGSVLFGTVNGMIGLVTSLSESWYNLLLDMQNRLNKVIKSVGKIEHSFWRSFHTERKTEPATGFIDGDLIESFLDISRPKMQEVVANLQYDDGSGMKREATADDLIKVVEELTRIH

CRBN-DDB1, sequence (Q96SW2 whole entry): as the sequence (Q96SW2 whole entry) above
CRBN-DDB1, sequence (Q16531 whole entry partner): as the sequence (Q16531 whole entry partner) above

| SMILES | IC50 (CRBN-DDB1) | IC50 [1] |
| --- | --- | --- |
| NCCCCCCCC#Cc1cccc(Oc2cccc3c2C(=O)NC(=O)C3)c1 [Compound I-248] | 30 to 100 µM | > 100 µM |
| NCCCCCc1ccc(Oc2cccc3c2C(=O)NC(=O)C3)cc1 [Compound I-249] | 10 to 30 µM | 10 to 30 µM |
| NCCCCCCCc1ccc(Oc2cccc3c2C(=O)NC(=O)C3)cc1 [Compound I-250] | < 10 µM | < 10 µM |
| NCCCCCCCCCc1ccc(Oc2cccc3c2C(=O)NC(=O)C3)cc1 [Compound I-251] | < 10 µM | < 10 µM |
| CC(C)(C)OC(=O)NCCCCCCCc1ccccc1Oc1cccc2c1C(=O)NC(=O)C2=O [Compound I-252] | 30 to 100 µM | 10 to 30 µM |
| Cc1ccccc1Oc1cccc2c1C(=O)NC(=O)C2=O [Compound I-253] | < 10 µM | 10 to 30 µM |
| NCCCCCc1ccccc1Oc1cccc2c1C(=O)NC(=O)C2 [Compound I-254] | 30 to 100 µM | 10 to 30 µM |
| NCCCCCCCCCc1ccccc1Oc1cccc2c1C(=O)NC(=O)C2 [Compound I-255] | 10 to 30 µM | 10 to 30 µM |
| O=C1Cc2cnn(Cc3ccccc3)c2C(=O)N1 [Compound I-257] | > 100 µM | > 100 µM |
| O=C1Cc2cccc(Cc3ccccc3)c2C(=O)N1 [Compound I-258] | 30 to 100 µM | > 100 µM |
| O=C1Cc2cccc(Oc3ccccn3)c2C(=O)N1 [Compound I-259] | 10 to 30 µM | > 100 µM |
| CN1C(=O)Cc2cccc(Oc3ccccc3)c2C1=O [Compound I-260] | > 100 µM | > 100 µM |
| NCCCC#Cc1ccc(Oc2cccc3c2C(=O)NC(=O)C3=O)cc1 [Compound I-264] | 10 to 30 µM | < 10 µM |
| NCCCC#Cc1ccc(Oc2cccc3c2C(=O)NC(=O)C3)cc1 [Compound I-265] | < 10 µM | < 10 µM |
| O=C1NC(=O)c2c(Oc3cccnc3)cccc2C1=O [Compound I-266] | < 10 µM | 10 to 30 µM |
| CC(=O)NCc1cccc(Oc2cccc3c2C(=O)NC(=O)C3=O)c1 [Compound I-267] | < 10 µM | 10 to 30 µM |
| CC(=O)NCc1cccc(Oc2cccc3c2C(=O)NC(=O)C3)c1 [Compound I-268] | 10 to 30 µM | 30 to 100 µM |
| CC(C)(C)OC(=O)NCc1cccc(Oc2cccc3c2C(=O)NC(=O)C3)c1 [Compound I-273] | 10 to 30 µM | 10 to 30 µM |
| O=C1Cc2cccc(Oc3cccc4ccncc34)c2C(=O)N1 [Compound I-274] | 30 to 100 µM | 30 to 100 µM |
| O=C1Cc2cccc(Oc3cccc4ccccc34)c2C(=O)N1 [Compound I-275] | 10 to 30 µM | 10 to 30 µM |
| O=C1Cc2ccnc(Oc3ccccc3)c2C(=O)N1 [Compound I-276] | 30 to 100 µM | 30 to 100 µM |
| O=C1Cc2cccc(COc3ccccc3)c2C(=O)N1 [Compound I-277] | 10 to 30 µM | 10 to 30 µM |
| O=C1Cc2cccc(CNc3ccccc3)c2C(=O)N1 [Compound I-278] | 10 to 30 µM | 10 to 30 µM |
| Cc1cccc(CN2C[C@@H]3C(=O)NC(=O)[C@@H]3C2)n1 [Compound I-292] | > 100 µM | 10 to 30 µM |
| O=C1NC(=O)[C@@H]2CN(Cc3ccc(-c4ccccc4)cc3)C[C@H]12 [Compound I-319] | > 100 µM | 30 to 100 µM |
